From US10117848B2, “Highly water-soluble salts of a short acting phenylalkylamine calcium channel blocker and uses thereof” (Milestone Pharmaceuticals Inc., priority 2015, dated 2018)
One block for each compound: values may come before it.

Experiments:
[1] = Solubility in aqueous solution; assay type: physicochemical; details: acid addition salts of compound I
[2] = system: patients suffering from an episode of PSVT; experiment: Nasal administration of acetate salt solutions to patients in a PSVT episode, monitored by electrocardiography; assay type: in vivo, human
Excerpt: A common method of measuring the effectiveness of a therapeutic agent in terminating an episode of a cardiac arrhythmia, such as PSVT, is by analysis of an electrocardiogram (ECG) recorded from a patient experiencing such an episode. […] One of the key features of healthy cardiac signaling is a temporal delay between the initiation of atrial and ventricular action potentials. A delay between signaling in the atria and ventricles is necessary for efficient pumping of blood. Signaling in the atria must proceed first, such that all blood in the atrial chambers is expelled into the ventricles before the ventricles contract. […]
It has been shown that an increase of at least 10% in the PR segment of an […] recorded from a patient suffering from a cardiac arrhythmia correlates well with a termination of the PSVT episode. […] The solutions that were administered to patients contained varying concentrations of the acetate salt of compound I. During the study, a solution containing a particular concentration of the acetate salt of compound I was administered to a patient experiencing an episode of PSVT, and the patient was monitored by electrocardiography throughout the duration of the experiment. […]

[3] = Homogeneity (no observable precipitation) of concentrated aqueous solutions on storage; assay type: physicochemical
[4] = system: nasal epithelium; experiment: Permeation through the nasal epithelium with EDTA; details: use of EDTA in the formulation
Excerpt: The nasal vestibule, which accounts for approximately 3-4% of the surface area of the nasal cavity, lacks tight junctions altogether and is thus not affected by calcium chelating agents. […] As such, it has been postulated that the nasal epithelium is not susceptible to permeability modulation by EDTA (Aungst, et al., Pharma. Res., 1998, 5:305-308). Additionally, the ability of EDTA to increase permeation of a compound through the nasal epithelium is attenuated as the molecular weight of the compound increases (Nakanishi, et al., Chem. Pharm. Bull., 1984, 32:1628-1632).

[5] = system: patients treated for an episode of PSVT; details: intravenous; cited from earlier work
[6] = system: patients suffering from an episode of PSVT; details: therapeutic dose, intravenous; cited from earlier work
[7] = 300 mg/mL, 1 eq methanesulfonic acid, 10 mM sodium acetate, 5 mM disodium EDTA, pH 4.5
[8] = 350 mg/mL, 1 eq acetic acid, pH 4.5 with 3.6 M sulfuric acid
[9] = 400 mg/mL, 1 eq methanesulfonic acid, 10 mM sodium acetate, 5 mM disodium EDTA, pH 4.5

solubility in aqueous solution [1]: high solubility
SMILES: CC(=O)O.COC(=O)c1cccc(CCN(C)CCC[C@@](C#N)(c2ccc(OC)c(OC)c2)C(C)C)c1 [acetate salt of compound I]
median PR prolongation ([2]; solutions containing 60 mg or greater of compound I, patients experiencing a PSVT episode, ECG): greater than 10%

homogeneity at 2-5° C. [3, 7]: remains homogeneous | homogeneity at room temperature [3, 7]: remains homogeneous | time solution remains homogeneous at 0° C. [3, 7]: at least 7 days | homogeneity at room temperature [3, 8]: remains homogeneous | time solution remains homogeneous at 10° C. [3, 8]: at least 3 days | homogeneity at 2-5° C. [3, 9]: remains homogeneous | homogeneity at room temperature [3, 9]: remains homogeneous | time solution remains homogeneous at 0° C. [3, 9]: at least 7 days | homogeneity at room temperature ([3]; highly concentrated solutions, 0.5-1.5 molar equivalents of acetic acid or methanesulfonic acid): remain homogeneous | homogeneity at room temperature ([3]; over 500 mg/mL, 1 eq acetic acid, pH 4.5 with 3.6 M sulfuric acid): remains homogeneous | permeation through the nasal epithelium [4]: increased the permeation
SMILES: COC(=O)c1cccc(CCN(C)CCCC(C#N)(c2ccc(OC)c(OC)c2)C(C)C)c1 (stereo not shown) [compound I, methyl 3-(2-((4-cyano-4-(3,4-dimethoxyphenyl)-5-methylhexyl)(methyl)amino)ethyl)benzoate]
effectiveness in terminating an episode of PSVT ([2]; dosage containing 60 mg of compound I): therapeutically effective

SMILES: OC[C@H]1O[C@@H](n2cnc3c(N[C@@H]4CCOC4)ncnc32)[C@H](O)[C@@H]1O [tecadenoson]
average PR prolongation [5]: 8.5% | efficacy of PSVT termination [5]: approximately 86% | patients treated who experienced relief from an episode of PSVT [5]: 32 out of 37

SMILES: COc1ccc(CCN(C)CCCC(C#N)(c2ccc(OC)c(OC)c2)C(C)C)cc1OC (stereo not shown) [verapamil, 2-(3,4-dimethoxyphenyl)-5-[2-(3,4-dimethoxyphenyl)ethyl-methylamino]-2-propan-2-ylpentanenitrile]
PR prolongation [6]: at least 10% | efficacy for terminating the PSVT episode [6]: 85-90%
